According to patent US8138168B1 (Takeda Pharmaceutical Company Limited, priority 2007, dated 2012):

Target: T1, Recombinant human renin (Homo sapiens, UniProt P00797)
T1 construct: isolate the active form (residues 67-406); made in house; host or cells: FreeStyle 293-F cells (transient expression of pcDNA3.1(+)/hREN)
T1 sequence (P00797 67-406): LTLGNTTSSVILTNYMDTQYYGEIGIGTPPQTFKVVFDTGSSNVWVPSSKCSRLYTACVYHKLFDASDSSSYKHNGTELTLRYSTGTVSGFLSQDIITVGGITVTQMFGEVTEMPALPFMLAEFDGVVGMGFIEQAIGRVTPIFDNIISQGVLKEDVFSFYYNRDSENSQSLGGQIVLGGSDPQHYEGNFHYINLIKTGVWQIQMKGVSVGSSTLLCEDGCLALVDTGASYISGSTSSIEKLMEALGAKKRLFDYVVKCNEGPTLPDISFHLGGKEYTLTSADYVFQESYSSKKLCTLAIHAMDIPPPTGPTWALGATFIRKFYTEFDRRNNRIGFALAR
Assay: In vitro enzymatic activity assay of renin inhibitors (fluorogenic peptide substrate)
Assay type: biochemical
Conditions: read-out: IC50 of Exemplified Compounds Against Renin
Method in brief: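 Recombinant human renin (3 nM final) pre-incubated 10 min at 37 °C with compounds in pH 7.4 Hepes/EDTA/DTT/0.1 mg/mL BSA/Brij35 buffer (optionally plus 2% BSA), 5% DMSO final; fluorogenic QXL520/HiLyteFluo488 peptide substrate added.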

IC50 [µM]	SMILES
< 0.1	COCCCn1c([C@@H]2CCCN(C(=O)C[C@H](N)Cc3ccc(-c4ccc(N5CCNC5=O)cc4)cc3)C2)nc2c(F)cccc21 [Compound 441, 1-(4′-((R)-2-amino-4-((R)-3-(4-fluoro-1-(3-methoxypropyl)-1H-benzo[d]imidazol-2-yl)piperidin-l-yl)-4-oxobutyl)biphenyl-4-yl)imidazolidin-2-one]
0.1 to 1	COCCCn1c([C@@H]2CCCN(C(=O)[C@@H]3CN(S(=O)(=O)c4ccc(Cl)c(Cl)c4)C[C@H]3N)C2)nc2ccccc21 [Compound 361, ((3R,4S)-4-amino-1-(3,4-dichlorophenylsulfonyl)pyrrolidin-3-yl)((R)-3-(1-(3-methoxypropyl)-1H-benzo[d]imidazol-2-yl)piperidin-1-yl)methanone]
0.1 to 1	CC(=O)NCCn1c([C@@H]2CCCN(C(=O)C[C@H](N)Cc3ccc(-c4ccc5c(c4)NC(=O)C5)cc3)C2)nc2ccccc21 [Compound 466, N-(2-(2-((R)-1-((R)-3-amino-4-(4-(2-oxoindolin-6-yl)phenyl)butanoyl)piperidin-3-yl)-1H-benzo[d]imidazol-1-yl)ethyl)acetamide]
> 1	COCCCn1c([C@@H]2CCCN(C(=O)C[C@H](N)CNC(=O)C(C)C)C2)nc2ccccc21 [Compound 333, N-((S)-2-amino-4-((R)-3-(1-(3-methoxypropyl)-1H-benzo[d]imidazol-2-yl)piperidin-1-yl)-4-oxobutyl)isobutyramide]
> 1	COCCCn1c(C(C)(C)C)cnc1C1(O)CCCN(C(=O)C[C@H](N)Cc2ccc(-c3ccc(C(=O)OC)cc3)cc2)C1 (stereo partly drawn) [Compound 242, methyl 4′-((2R)-2-amino-4-(3-(5-tert-butyl-1-(3-methoxypropyl)-1H-imidazol-2-yl)-3-hydroxypiperidin-1-yl)-4-oxobutyl)biphenyl-4-carboxylate]
< 0.1	CC(=O)NCCn1c([C@@H]2CCCN(C(=O)C[C@H](N)Cc3ccc(-c4ccc5c(c4)CC(=O)N5)cc3)C2)nc2ccccc21 [Compound 465, N-(2-(2-((R)-1-((R)-3-amino-4-(4-(2-oxoindolin-5-yl)phenyl)butanoyl)piperidin-3-yl)-1H-benzo[d]imidazol-1-yl)ethyl)acetamide]
< 0.1	COCCCn1c([C@@H]2CCCN(C(=O)C[C@H](N)Cc3ccc(-c4ccc5c(c4)OCC(=O)N5)cc3)C2)nc2c(F)cccc21 [Compound 443, 7-(4-((R)-2-amino-4-((R)-3-(4-fluoro-1-(3-methoxypropyl)-1H-benzo[d]imidazol-2-yl)piperidin-1-yl)-4-oxobutyl)phenyl)-2H-benzo[b][1,4]oxazin-3(4H)-one]
> 1	NC(=O)CCn1c([C@@H]2CCCN(C(=O)C[C@H](N)Cc3ccc(-c4ccccc4)cc3)C2)nc2ccccc21 [Compound 485, 3-(2-((R)-1-((R)-3-amino-4-(biphenyl-4-yl)butanoyl)piperidin-3-yl)-1H-benzo[d]imidazol-1-yl)propanamide]
0.1 to 1	Nc1ncc(-c2ccc(C[C@@H](N)CC(=O)N3CCC[C@@H](c4nc5ccccc5n4CCF)C3)cc2)cn1 [Compound 509, (R)-3-amino-4-(4-(2-aminopyrimidin-5-yl)phenyl)-1-((R)-3-(1-(2-fluoroethyl)-1H-benzo[d]imidazol-2-yl)piperidin-1-yl)butan-1-one]
> 1	COCCCn1c([C@@H]2CCCN(C(=O)[C@@H]3CN(C(=O)Nc4ccc(OC)cc4)C[C@H]3N)C2)nc2ccccc21 [Compound 415, (3S,4R)-3-amino-N-(4-methoxyphenyl)-4-((R)-3-(1-(3-methoxypropyl)-1H-benzo[d]imidazol-2-yl)piperidine-1-carbonyl)pyrrolidine-1-carboxamide]
> 1	COCCCn1c([C@@H]2CCCN(C(=O)[C@@H]3CN(S(=O)(=O)c4cccc(-c5nnc(C)o5)c4)C[C@H]3N)C2)nc2ccccc21 [Compound 431, ((3R,4S)-4-amino-1-(3-(5-methyl-1,3,4-oxadiazol-2-yl)phenylsulfonyl)pyrrolidin-3-yl)((R)-3-(1-(3-methoxypropyl)-1H-benzo[d]imidazol-2-yl)piperidin-1-yl)methanone]
0.1 to 1	COCCCn1c([C@@H]2CCCN(C(=O)[C@@H]3CN(S(=O)(=O)c4c(C)cccc4Cl)C[C@H]3N)C2)nc2ccccc21 [Compound 359, ((3R,4S)-4-amino-1-(2-chloro-6-methylphenylsulfonyl)pyrrolidin-3-yl)((R)-3-(1-(3-methoxypropyl)-1H-benzo[d]imidazol-2-yl)piperidin-1-yl)methanone]

More lines, now with the values behind:

SMILES	IC50 [µM]
COCCCn1c([C@@H]2CCCN(C(=O)C[C@H](N)Cc3cccnc3)C2)nc2ccccc21 [Compound 82, (R)-3-amino-1((R)-3-(1-(3-methoxypropyl)-1H-benzo[d]imidazol-2-yl)piperidin-1-yl)-4-(pyridin-3-yl)butan-1-one]	> 1
CC[C@H](C)[C@H](N)C(=O)N1CCCC(c2nc3ccccc3[nH]2)C1 (stereo partly drawn) [Compound 48, (2S,3S)-1-(3-(1H-benzo[d]imidazol-2-yl)piperidin-1-yl)-2-amino-3-methylpentan-1-one]	> 1
CCOC(=O)CCNC(=O)N1CCCC(c2nc3ccccc3[nH]2)C1 (stereo not shown) [Compound 14, ethyl 3-(3-(1H-benzo[d]imidazol-2-yl)piperidine-1-carboxamido)propanoate]	> 1
N[C@H](Cc1ccccc1)C(=O)N1CCCC(c2nc3ccccc3[nH]2)C1 (stereo partly drawn) [Compound 58, (2R)-1-(3-(1H-benzo[d]imidazol-2-yl)piperidin-1-yl)-2-amino-3-phenylpropan-1-one]	> 1
COc1cc(OC)cc([C@@H](N)CC(=O)N2CCCC(c3nc4ccccc4[nH]3)C2)c1 (stereo partly drawn) [Compound 31, (3S)-1-(3-(1H-benzo[d]imidazol-2-yl)piperidin-1-yl)-3-amino-3-(3,5-dimethoxyphenyl)propan-1-one]	> 1
N[C@@H](CC(=O)N1CCCC(c2nc3ccccc3[nH]2)C1)c1cccc(Cl)c1Cl (stereo partly drawn) [Compound 37, (3S)-1-(3-(1H-benzo[d]imidazol-2-yl)piperidin-1-yl)-3-amino-3-(2,3-dichlorophenyl)propan-1-one]	> 1
N[C@@H](CC(=O)N1CCCC(c2nc3ccccc3[nH]2)C1)c1cccc(Br)c1 (stereo partly drawn) [Compound 41, (3S)-1-(3-(1H-benzo[d]imidazol-2-yl)piperidin-1-yl)-3-amino-3-(3-bromophenyl)propan-1-one]	> 1
COCCCn1c([C@@H]2CCCN(C(=O)C[C@H](N)Cc3ccc(-c4ccccc4)cc3)C2)nc2ccncc21 [Compound 103, (R)-3-amino-4-(biphenyl-4-yl)-1((R)-3-(3-(3-methoxypropyl)-3H-imidazo[4,5-c]pyridin-2-yl)piperidin-1-yl)butan-1-one]	> 1
COCCCn1c([C@@H]2CCCN(C(=O)C[C@H](N)Cc3ccc(-n4ccc5ccccc5c4=O)cc3)C2)nc2ccccc21 [Compound 229, 2-(4-((R)-2-amino-4-((R)-3-(1-(3-methoxypropyl)-1H-benzo[d]imidazol-2-yl)piperidin-1-yl)-4-oxobutyl)phenyl)isoquinolin-1(2H)-one]	< 0.1
COCCCn1c([C@@H]2CCCN(C(=O)C[C@H](N)Cc3ccc(-c4ccc(C(=O)NC5CC5)cc4)cc3)C2)nc2ccccc21 [Compound 134, 4′-((R)-2-amino-4-((R)-3-(1-(3-methoxypropyl)-1H-benzo[d]imidazol-2-yl)piperidin-1-yl)-4-oxobutyl)-N-cyclopropylbiphenyl-4-carboxamide]	< 0.1
